How the values were obtained:
BALB/c mice = assay: OVA-induced AHR in adult mice treated with glycolipid at 2 weeks of age; format: in vivo, mouse; details: 2 wk old mice treated i.p. (α-C-GalCer 5 μg, α-GalCer 2 μg, PI57 50 or 100 μg, PBS30 50 μg); AHR induced 6 wks (42 days) later
Description: In FIGS. 6A-6B, two-week-old BALB/c mice (n=6-8/group) (6A) or Tbet^−/− mice (6B) (n=4-6 per group) received 5 μg […] (cGal), 2 μg α-GalCer, or vehicle. After OVA sensitization and challenge, AHR was measured on day 44. In FIG. 6C, donor mice were treated with α-C-GalCer (5 μg) or vehicle i.p. NKT cells served as donors, as in FIG. 4A (n=4 per group). Lung resistance (left) and cell counts in BAL (right) were assessed. […] In FIG. 6E, mice received PI57 (50 μg), α-GalCer (2 μg), or vehicle i.p., and lungs were examined 1 or 14 days later for CD4 and CD8 expression. In FIG. 6F, absolute numbers of CD4^+ NKT and DN NKT subsets from 6E were assessed. In FIG. 6G, BALB/c mice (n=5-8/group) received PI57 or vehicle i.p. Lung resistance (left) and BAL cells (right) were assessed. In FIG. 6H, BALB/c mice treated with PI57 (50 μg), PBS30 (Sphingomonas glycolipid) (50 μg), or vehicle i.p. were assessed for AHR as in 6G. In FIG. 6I, donor mice were treated with PI57 (50 μg) or vehicle i.p. NKT cells served as donors as in FIG. 4A. Lung resistance (left) and BAL cells (right) were assessed (n=4 per group). […] Data represent 2-3 independent experiments. *P<0.05, #P<0.05, ***P<0.001 versus vehicle-OVA (6C, 6G, and 6I), DN NKT saline (6F), and CD4^+ NKT saline (6F).
Induction of AHR and measurement of airway responsiveness in the OVA model.
To induce AHR, BALB/c mice were sensitized with 100 μg of OVA (Sigma-Aldrich) in alum administered i.p (on day 0). After sensitization, mice were exposed to intranasal antigen (50 μg OVA/day) or normal saline for 1 day (day 7; single dose challenge protocol), or for 3 consecutive days (days 7, 8, 9). AHR was assessed on the day after last OVA-challenge. Control mice received i.p. injection of PBS and intranasal administrations of normal saline.

[1] = system: OVA-sensitized BALB/c mice; assay: Adoptive transfer of NKT cells from glycolipid-treated mice into OVA-sensitized BALB/c recipients (AHR, BAL); format: in vivo, mouse; details: OVA-sensitized WT recipients; for AHR in recipients of NKT cells from glycolipid-treated donors: donors treated i.p. at 2 wk (α-C-GalCer 5 μg, PI57 50 μg, or α-GalCer), NKT cells harvested 6 wks later
NKT cells = details: cited from earlier work
pulmonary NKT cells = assay: Lung NKT cell subsets (CD4+, DN) by FACS after i.p. glycolipid in 2 week-old mice; format: in vivo, mouse; details: i.p. PI57 50 μg or α-GalCer 2 μg, lung 2 wks later
Description: In FIGS. 6A-6B, two-week-old BALB/c mice (n=6-8/group) (6A) or Tbet^−/− mice (6B) (n=4-6 per group) received 5 μg […] (cGal), 2 μg α-GalCer, or vehicle. After OVA sensitization and challenge, AHR was measured on day 44. In FIG. 6C, donor mice were treated with α-C-GalCer (5 μg) or vehicle i.p. NKT cells served as donors, as in FIG. 4A (n=4 per group). Lung resistance (left) and cell counts in BAL (right) were assessed. […] In FIG. 6E, mice received PI57 (50 μg), α-GalCer (2 μg), or vehicle i.p., and lungs were examined 1 or 14 days later for CD4 and CD8 expression. In FIG. 6F, absolute numbers of CD4^+ NKT and DN NKT subsets from 6E were assessed. In FIG. 6G, BALB/c mice (n=5-8/group) received PI57 or vehicle i.p. Lung resistance (left) and BAL cells (right) were assessed. In FIG. 6H, BALB/c mice treated with PI57 (50 μg), PBS30 (Sphingomonas glycolipid) (50 μg), or vehicle i.p. were assessed for AHR as in 6G. In FIG. 6I, donor mice were treated with PI57 (50 μg) or vehicle i.p. NKT cells served as donors as in FIG. 4A. Lung resistance (left) and BAL cells (right) were assessed (n=4 per group). […]
Cells were preincubated with anti-Fey blocking mAb (2.4G2) and washed before staining. […] Cells were analyzed on a BDCanto flow cytometer (BD Biosciences) using FlowJo 8.3.3 software (Tree Star, Inc.).

Row | Compound | protection against development of OVA-induced AHR (lung resistance) (BALB/c mice) | airway inflammation (BAL cells, lung sections) in recipients of NKT cells from glycolipid-treated donors ([1]; donors treated i.p. at 2 wk (α-C-GalCer 5 μg, PI57 50 μg)) | AHR in recipients of NKT cells from glycolipid-treated donors [1] | cytokine synthesis induced (IFN-γ, IL-4) (NKT cells) | number of NKT cells (CD4+ and DN subsets) in the lung (pulmonary NKT cells)
1 | CCCCCCCCCCCCCCCCCCCCCCCCCC(=O)N[C@@H](CC[C@H]1OC(CO)[C@H](O)C(O)C1O)[C@H](O)[C@H](O)CCCCCCCCCCCCCC (stereo partly drawn) [α-C-GalCer, α-C-Galactosylceramide] | protected the mice as adults (42 days later) from the development of OVA-induced AHR | protected recipients against the development of AHR and airway inflammation | protected recipients against the development of AHR | preferentially induces IFN-γ but not IL-4 synthesis | 
2 | CCCCCCCCCCCCCCCCCCCCCCCCCC(=O)N[C@@H](CO[C@H]1O[C@H](CO)[C@H](O)[C@H](O)[C@H]1O)[C@H](O)[C@H](O)CCCCCCCCCCCCCC [α-GalCer, α-Galactosylceramide] | did not prevent OVA induced AHR |  | reduced AHR slightly, but this was not statistically significant | induces production of both IFN-γ and IL-4 | increased both CD4^+ and DN NKT cells in the lungs

— US9657046B2, “Methods for the treatment and prevention of inflammatory diseases” (Children's Medical Center Corporation, priority 2010, dated 2017)
